According to paper PMC10394673, “Module walking using an SH3-like cell-wall-binding domain leads to a new GH184 family of muramidases” (Acta Crystallographica. Section D, Structural Biology, 2023):
Peptide text beside a SMILES is read from it.

How the values were obtained:
[1] = molecular target: T1, TsCWBD (Trichophaea saccata, UniProt A0AA82WPC9); assay: nanoDSF thermal shift; format: binding; conditions: pH 8.5; Chelex-treated and untreated protein
T1 construct: isolated N-terminal SH3-like CWBD, residues 1-73 of the 245-residue GH24 muramidase, about 10 kDa, recombinant; no catalytic domain
T1 sequence (A0AA82WPC9 1-73): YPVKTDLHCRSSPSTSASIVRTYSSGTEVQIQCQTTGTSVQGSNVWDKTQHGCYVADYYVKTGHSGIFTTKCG

[2] = molecular target: T1, TsCWBD; assay: X-ray crystal structure, […] A; format: binding; conditions: co-crystallized with 10 mM triglycine, pH 8.5; canonical SH3 specificity zone (Asp6, His8, Arg10); zinc-bridged crystal contact

With `NCC(=O)NCC(=O)NCC(=O)O` [triglycine] (H-Gly-Gly-Gly-OH) the thermal shift [1] was “the thermal shift is present for both treated and untreated samples, implying ligand binding” and the “X-ray crystal structure, 1.18 A” value [2] was “The triglycine in our structure is bound within the canonical specificity zone”.
